Consider one compound from patent publication US9744158B2, “Veterinary antiprolactinic composition for ruminants” (CEVA SANTE ANIMALE, priority 2008, dated 2017).

This series relates to gestating cows. In words: Clinical safety study (abortion, fetal toxicity) in gestating ruminants (Example 3). The series is classed as in vivo. Conditions: two injections at interval of 48 hours, 25 mcg/kg. The method, then:
This study aims to show the absence of risks such as abortions and fetus toxicity during the use of cabergoline in gestating ruminants even in the case of an overdose of cabergoline based veterinary compositions according to the regimen prescribed in the present invention. Groups of cows at different gestating stages receive the treatment at different doses: • 3 months of gestation (6 animals), dose of 15 mcg/kg—2 injections at an interval of 48 hours • 7 to 8 months of gestation: (5 animals), dose of 15 mcg/kg—2 injections at an interval of 48 hours • 6.5 to 7.5 months of gestation: (11 animals), dose of 25 mcg/kg—2 injections an interval of 48 hours
The formulation described in the Example 1, containing 500 mcg/ml of cabergoline in injectable solution is used in this study.
Regular clinical exams were conducted during a period lasting from 7 days before the treatment to 15 days after the treatment:
Daily general inspection and abortions,
Clinical exam of the genital tract including transrectal palpation and an ultrasound, in order to evaluate the suffering and fetal viability.
Blood samplings are conducted one day before the treatment and 15 days after the treatment to follow the plasmatic concentrations of different hormones and proteins indicating the health of the placenta and fetus, such as progesterone, estrone sulfate and the PAG (Pregnancy Associated Glycoprotein). […]

SMILES strings stand for the structures.

Regarding `C=CCN1C[C@H](C(=O)N(CCCN(C)C)C(=O)NCC)C[C@@H]2c3cccc4[nH]cc(c34)C[C@H]21` [cabergoline, N-[3-(Dimethylamino)propyl]-N-[(ethylamino)carbonyl]-6-(2-propenyl)-8 g-ergoline-8-carboxamide], the abortions result is recorded as “do not provoke any abortions”; the “harmful effect on the gestation, viability and health of the new born calves” value was “neither do they have any harmful effect”.
